This note sets out measurements from article PMC12326981, “Novel C5α-substituted carbapenems enhance Mycobacterium abscessus killing via selective target binding and reduced hydrolysis by BlaMab” (Antimicrobial Agents and Chemotherapy, 2025).

“And” between values parts separate entries of the source, which are not always exact repeats. Equal values may be shown once. Read-outs that look alike come from different tables or passages of the source.

Data set [1] is described as follows: Thermal stability in 7H9 broth at 30°C. As to conditions: for Degradation percentage / degradation after 24 h: 7H9 broth, 30°C; for Degradation percentage: 24 h; for degradation after 24 h: 50 mg/L and 10 mg/L (Fig. S2); for half-life: buffer. As for the experimental part: The stability of the two compounds in 7H9 broth was assessed at 30°C at drug concentrations of 10, 50, and 100 mg/L, with each condition tested in triplicate. Absorbance at 240 nm was measured every 2 h over a 24 h period using a BioTek Synergy2 multimode reader, with data analyzed via Gen5 software to monitor degradation or changes in stability. To evaluate the impact of thermal instability, MIC tests were performed using Mab ATCC 19977. Compounds were tested at time points of 0 h (no incubation) and 6, 24, and 48 h of incubation at 30°C. Imipenem and meropenem, known to be thermally unstable β-lactams, were included as positive controls. The MIC results were recorded after 48 h of incubation. Detailed MIC testing protocols were identical to those described below.

For data set [2], the system named is Mab ATCC 19977. Kind of data set: MIC testing against Mab ATCC 19977, single agent and combinations. The data set is classed as cell-based, Mycobacterium abscessus. The method, then:
MICs were determined in duplicate following Clinical Laboratory Standards Institute ([52]) guidelines using Middlebrook 7H9 broth supplemented with 10% (vol/vol) oleic acid-albumin-dextrose-catalase (OADC) and 0.05% (vol/vol) Tween 80, with an inoculum of 5 × 10⁵ CFU/mL. MIC testing of two C5α-substituted carbapenems was conducted both individually and in combination with cephalosporins (cefuroxime and ceftaroline), penicillins (amoxicillin), or BLIs (avibactam or durlobactam + sulbactam). Avibactam, durlobactam, cefuroxime, ceftaroline, and amoxicillin were fixed at concentrations of 4, 1, 2, 4, and 4 mg/L, respectively. […] The MIC was defined as the lowest antibiotic concentration that inhibited visible bacterial growth following 48 h of incubation at 30°C.

Data set [3] relates to DDC. Kind of data set: Mass spectrometric analysis of acyl-enzyme adducts. The data set is classed as binding, Mycobacterium abscessus. More on the design: key: (.) indicates no detectable binding. As to conditions: DDC (29,750); 1:10 molar ratio, 2 h; accuracy ±5 Da. The method, then:
(§1) Truncated sequences of BlaMab (Δ1–30 blaMab), LDT1–5, DDC, PBP B, PonA2, and PBP-lipo (Δ1–41) were synthesized by Celtek Biosciences (Franklin, TN) and cloned into the pET28(a)+ vector. Purification of LDTs and PBPs was carried out as previously described ([15], [16], [20]). Briefly, clones were transformed into Escherichia coli BL21 (DE3), and protein expression was induced with 0.25 mM isopropyl β-d-1-thiogalactopyranoside. Cell pellets were resuspended in buffer containing 50 mM Tris (pH 8.0), 400 mM sodium chloride, and 1 mM Tris(2-carboxyethyl)phosphine hydrochloride and lysed by sonication. After centrifugation, the supernatant was purified using a His Prep FF column and eluted with 500 mM imidazole.
(§2) The purified proteins were incubated at room temperature with JDB/NA-1-157 and JDB/NA-1-208 at a molar ratio of 1:10 for 2 h. A quadrupole time-of-flight mass spectrometer (Waters Synapt-G2-Si) with electrospray ionization and a Waters Acquity H-Class UPLC system were used to analyze the samples. The liquid chromatography conditions were as follows: a BEH C18 column (1.7 µm, 2.1 × 50 mm) and a mobile phase consisting of 0.1% formic acid in water and 0.1% formic acid in acetonitrile, with a gradient elution from 10% to 90% acetonitrile over 11 min at a flow rate of 0.5 mL/min. The MS settings were optimized with a capillary voltage of 3 kV, a sampling cone voltage of 35 V, and source and desolvation temperatures of 100°C and 500°C, respectively. Gas flow rates were 100 L/h for the cone and 800 L/h for desolvation. The mass accuracy was maintained at ±5 Da.

Data set [4] concerns the target LDT5 (Mycobacteroides abscessus, UniProt B1MHQ4). Kind of data set: Mass spectrometric analysis of acyl-enzyme adducts. The data set is classed as binding, Mycobacterium abscessus. More on the design: key: (.) indicates no detectable binding. As to conditions: LDT5 (28,220); 1:10 molar ratio, 2 h; accuracy ±5 Da. As for the experimental part:
as §1, §2

Data set [5] concerns Mab strain ATCC 19977 and three clinical isolates (Mab122, Mab686, and UH01). The data set is described as follows: Static concentration time-kill (SCTK) assay. The data set is classed as cell-based, Mycobacterium abscessus. The method, then: SCTK studies were conducted over 5 days in Middlebrook 7H9 broth supplemented with 10% (vol/vol) OADC, 0.2% (vol/vol) glycerol, and 0.05% (vol/vol) Tween 80 in duplicate. The efficacy of JDB/NA-1-157 and JDB/NA-208 was evaluated using Mab strain ATCC 19977 and three clinical isolates (Mab122, Mab686, and UH01) at an initial inoculum of 10^5.5–10^6.3 CFU/mL. […] Bacterial killing was assessed across a wide range of concentrations for JDB/NA-1-157 and JDB/NA-1-208 individually (0.0625–64.0 mg/L).
For the combination study, the concentrations of JDB/NA-1-157 and JDB/NA-1-208 were selected based on MIC results and time-killing profiles of the single-drug study, while the concentrations of other β-lactams and BLIs were chosen based on clinically relevant levels, determined from the predicted average unbound steady-state concentrations (fCss,avg) in plasma at clinically relevant doses ([27]). The drug concentrations used were JDB/NA-1-157, 1 mg/L; JDB/NA-1-208, 8 mg/L; imipenem, 12 mg/L; ceftaroline, 8 mg/L; cefuroxime, 8 mg/L; amoxicillin, 2 mg/L; avibactam, 4 mg/L; durlobactam, 12 mg/L; amikacin, 12 mg/L; clarithromycin, 0.3 mg/L; and cefoxitin, 7 mg/L. The SOC regimen was included for comparison of efficacy. On day 3, the broth was replaced with fresh broth containing the corresponding drug concentrations. For viable cell counts, 100 µL of undiluted or appropriately diluted samples was subcultured on Middlebrook 7H10 agar plates supplemented with 1% (vol/vol) OADC, 0.2% glycerol, and 0.05% (vol/vol) Tween 80. All samples were washed twice with sterile 0.9% saline prior to serial dilution or plating.

Setting [6] is: Mycobacteroides abscessus, ATCC19977, 48 h, alone (single agent), read-out: MIC.

Chain of LDT5 (B1MHQ4 entry or part of it): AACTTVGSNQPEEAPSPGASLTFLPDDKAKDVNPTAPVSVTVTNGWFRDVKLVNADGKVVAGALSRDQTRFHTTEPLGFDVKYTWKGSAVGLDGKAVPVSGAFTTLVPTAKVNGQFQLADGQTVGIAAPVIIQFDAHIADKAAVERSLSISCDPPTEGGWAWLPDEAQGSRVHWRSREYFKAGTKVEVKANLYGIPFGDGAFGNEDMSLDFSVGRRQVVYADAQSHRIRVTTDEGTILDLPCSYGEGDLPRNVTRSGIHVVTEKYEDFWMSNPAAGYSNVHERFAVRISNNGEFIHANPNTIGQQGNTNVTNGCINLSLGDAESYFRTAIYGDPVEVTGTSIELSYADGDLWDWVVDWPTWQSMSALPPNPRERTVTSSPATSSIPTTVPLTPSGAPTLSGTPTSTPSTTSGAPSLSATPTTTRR

Broadly, the half-life is how long it takes for the measured level to halve. In general, MIC refers to the least concentration at which growth counts as inhibited. Turning to `C[C@@H](O)[C@H]1C(=O)N2C(C(=O)O)=C(S[C@@H]3CN[C@H](C(=O)N(C)C)C3)C[C@]12C` [JDB/NA-1-157], the Degradation percentage is 11.9% in data set [1] (10 mg/L); 16.2% in data set [1] (50 mg/L); 16% and 16.6% in data set [1] (100 mg/L). Also, the “degradation after 24 h” value in data set [1] is listed as 16%. In addition, in data set [1], the half-life is 50 h. Moreover, the MIC worked out at 0.125 µg/mL in data set [2] (+AMX (4 mg/L) + AVI (4 mg/L)); 0.5 µg/mL in data set [2] (+AVI (4 mg/L)); 0.125 µg/mL in data set [2] (+CFT (4 mg/L)); 0.125 µg/mL in data set [2] (+CXM (2 mg/L)); 0.25 µg/mL in data set [2] (+DUR (1 mg/L)); 0.5 µg/mL in data set [2] (setting [6]). In addition, in data set [2] (combined with cefuroxime, ceftaroline, or amoxicillin (with avibactam), Table 1, Fig. 3), the “fold reduction in MIC on combination” value is reported as not above 4 fold. Also, the “Mass of protein after incubation (mass shift)” value in data set [3] is recorded as 30,134 (+383) Da; in data set [4], 28,219 (.). In data set [5] (1 mg/L with BLIs (avibactam or durlobactam) or β-lactams (cefuroxime, ceftaroline, or amoxicillin), by day 3, ATCC 19977, Mab122, Mab686), the “bacterial killing in combination” value is reported as “near-complete eradication”. Moreover, the “bacterial killing on addition of avibactam” value in data set [5] (ATCC 19977, JDB/NA-1-157 1 mg/L + avibactam 4 mg/L) is recorded as “up to 2.5 log10 CFU/mL”. For the same compound, the “log10 CFU/mL reduction” value in data set [5] (single agent, 4 mg/L, over 5 days, ATCC 19977 and clinical isolates) is 1.5–2.0 log10 CFU/mL. Further, in data set [5] (single agent, 16–64 mg/L, 5 days), the “bacterial killing at high concentration” value is “near-complete eradication”.
With `CC[C@]12CC(S[C@@H]3CN[C@H](C(=O)N(C)C)C3)=C(C(=O)O)N1C(=O)[C@@H]2[C@@H](C)O` [JDB/NA-1-208], the Degradation percentage in data set [1] (10 mg/L) came out at 0.6%; in data set [1] (50 mg/L), 10.5%. Moreover, in data set [1], the “degradation after 24 h” value is “approximately 10%”. The half-life in data set [1] was 66 h. Further, the MIC was not above 0.0313 µg/mL in data set [2] (+AMX (4 mg/L) + AVI (4 mg/L)); 32 µg/mL in data set [2] (+AVI (4 mg/L)); 4 µg/mL in data set [2] (+CFT (4 mg/L)); 8 µg/mL in data set [2] (+CXM (2 mg/L)); 32 µg/mL in data set [2] (+DUR (1 mg/L)); 32 µg/mL in data set [2] (setting [6]). The “Mass of protein after incubation (mass shift)” value in data set [3] was 29,750 (.); in data set [4], 28,617 (+397) Da. For the same compound, the “effect of combining with avibactam on killing” value in data set [5] (8 mg/L + avibactam 4 mg/L) is on record as “no significant effect”. In addition, the “bacterial killing in combination” value in data set [5] (8 mg/L with ceftaroline, cefuroxime, amoxicillin (with avibactam), or durlobactam) is given as “near-complete eradication”. In addition, in data set [5] (single agent, 64 mg/L), the “log10 CFU killing” value is listed as ~ 3 log10 CFU.
